Literature values as cited in patent publication US20260263442A1, “METHOD FOR TREATING L-DOPA-INDUCED DYSKINESIA USING BEFIRADOL” (Neurolixis, Inc., priority 2023, published 2026).

Key:
[1] = tested on: L-DOPA-induced dyskinesia in Parkinson's patients; conditions: human, in vivo; cited from earlier work
[2] = tested on: L-DOPA-induced dyskinesia in Parkinson's patients; conditions: cited from earlier work; for Efficacy to alleviate LID, clinically tested / Effect on motor symptoms of Parkinson's disease: human, in vivo
[3] = tested on: striatal 5-HT1A receptors; conditions: striatum of rat, cat, macaque and human; cited from earlier work

Compound | Efficacy to alleviate LID, clinically tested [2] | Effect on motor symptoms of Parkinson's disease [2] | also measured
NC12CC3CC(CC(C3)C1)C2 [amantadine] | – | – | Proportion of patients who are non-responders [1]: about ⅓; Side effects limiting use [1]: hallucinations, confusion, leg edema, orthostatic hypotension
O=C1CC2(CCCC2)CC(=O)N1CCCCN1CCN(c2ncccn2)CC1 [buspirone] | limited efficacy | – | –
Fc1ccc(-c2cncc(CNC[C@H]3CCc4ccccc4O3)c2)cc1 [sarizotan] | limited efficacy | no beneficial effect or even the opposite effect | Effect on L-DOPA efficacy, phase 2b study ([2]; Parkinson's patients with troublesome L-DOPA-induced dyskinesia): two of the three tested doses significantly reduced L-DOPA efficacy; Reduction of LID, two phase 3 clinical trials ([2]; third (and lowest) dose): ineffective in reducing LID
O=C1[C@@H]2[C@H]3CC[C@H](C3)[C@@H]2C(=O)N1CCCCN1CCN(c2ncccn2)CC1 [tandospirone] | limited efficacy | no beneficial effect or even the opposite effect | –
Cc1ccc(CNCC2(F)CCN(C(=O)c3ccc([18F])c(Cl)c3)CC2)nc1 [^18F-NLX-112] | – | – | Labelling of 5-HT1A receptors, PET brain imaging [3]: consistently labelled striatal 5-HT1A receptors
c1cc2c(c(N3CCNCC3)c1)OCCO2 [eltoprazine] | limited efficacy | – | –
